According to US6500830B1, “Conversion of modification D to modification A of doxazosin mesylate” (Knoll Aktiengesellschaft, priority 1998, dated 2002):
Counter-ions that a name gives are not always drawn.

Test: Dissolution of doxazosin mesylate in recrystallisation solvents
Format: physicochemical
Source text: Although doxazosin is mostly used as monomesylate, the preparation of this salt has not to date been described. […] The product isolated after cooling the suspension contains chloroform, which is a solvent which is objectionable from the toxicological viewpoint and which can be removed only with difficulty and not without adverse effects on the active ingredient. […] In addition, the yield is poor and the material proves to be X-ray amorphous. […] Hot filtration of the suspension affords a small yield of the described ethanol modification A as residue on the filter. Cooling the filtrate results in only a moderate yield of impure A modification.

solubility in chloroform (75 times the amount of chloroform at the boiling point): does not dissolve
solubility in ethanol (350 times the amount of ethanol at the boiling point of the solvent): does not dissolve
solubility in water (water, compared with chloroform): dissolves better in water
Compound: COc1cc2nc(N3CCN(C(=O)C4COc5ccccc5O4)CC3)nc(N)c2cc1OC (stereo not drawn) [doxazosin mesylate, 4-amino-2-[4-(1,4-benzodioxane-2-carbonyl)piperazin-1-yl]-6,7-dimethoxyquinazoline]
